Test results: article PMC3356383, “Efficacious Intermittent Dosing of a Novel JAK2 Inhibitor in Mouse Models of Polycythemia Vera” (PLoS ONE, 2012)
Marks after values point to notes of the source that are not given here.

Tests used:
[1] = target: T1, JAK3 (JH1) (Homo sapiens, UniProt P52333); experiment: JAK3 enzyme assay, HTRF detection; type: biochemical
T1 construct: JAK3 (JH1)
Experimental: (§1) JAK1, JAK2, JAK3, and TYK2 kinase activity assays were performed as described previously using HTRF detection technology and the peptide substrate amino hexanoyl biotin-EQEDEPEGDYFEWLE-NH2. Each reaction was incubated between 60 and 80 min at room temperature. Final conditions were as follows: JAK1, 400 pM enzyme, Hepes pH 7.5, 10 mM MgCl2, 0.01% Brij-35, 1 mM EGTA, 0.1 mg/ml BSA), 2 mM DTT, 2 µM peptide substrate, 25 µM MgATP, 5% DMSO and the desired concentration of subject compound; JAK2, 25 pM enzyme (JH1, JH1–JH2^wt, JH1–JH2^V617F domains), 2 µM peptide substrate, 15 µM MgATP, 5 mM MgCl2, 100 mM NaCl, 2 mM DTT, 0.1 mg/ml BSA, 50 mM Tris (pH 7.4), 5% DMSO and the desired concentration of subject compound; JAK3, 250 pM enzyme, 50 mM Hepes pH 7.5, 10 mM MgCl2, 0.01% Brij-35, 1 mM EGTA, 0.1 mg/ml BSA), 2 mM DTT, 2.0 µM peptide substrate, 25 µM MgATP, 5% DMSO, and the desired concentration of subject compound; TYK2, 125 pM enzyme, 50 mM Hepes pH 7.5, 10 mM MgCl2, 0.01% Brij-35, 1 mM EGTA, 0.1 mg/ml BSA, 2 mM DTT, 2.0 µM peptide substrate, 15 µM MgATP, 5% DMSO and the desired concentration of subject compound.

[2] = test system: pSTAT5 in BaF3 (JAK2 V617F) cells; experiment: Cell pSTAT5 AlphaScreen SureFire assay; type: cell-based; settings: Mus musculus, 1 hour
Experimental: (§2) Measurement of pSTAT5 in cells was performed essentially as described previously using an AlphaScreen™ SureFire™ (Perkin Elmer) assay. BaF3 (JAK2 WT), BaF3 (JAK2 V617F), and CTLL-2 cells were exposed to compound for 60 min prior to lysis and subsequent detection of pSTAT5 via AlphaScreen technology. Prior to compound treatment, BaF3 (JAK2 WT) and CTLL-2 cells were cytokine starved overnight, with EPO or IL-2 added 15 minutes prior to lysis, respectively.

[3] = test system: pSTAT5 in BaF3 (JAK2 WT) cells; experiment: Cell pSTAT5 AlphaScreen SureFire assay; type: cell-based; settings: Mus musculus, 1 hour, EPO-stimulated
Experimental: as §2

[4] = test system: pSTAT5 in CTLL-2 cells (JAK1 and JAK3 dependent); experiment: Cell pSTAT5 AlphaScreen SureFire assay; type: cell-based
Experimental: as §2

[5] = test system: bone marrow cell populations; experiment: Cell populations in bone marrow of normal mice; type: in vivo; settings: 54 mpk
Experimental: Cells were stained in PBS, 0.5% BSA with antibodies for 15 min on ice. Stained cells were acquired on a 4-laser LSR-II (BD Biosciences) and data analyzed using FlowJo software (Treestar). Dead cells were labeled with the blue fluorescent LIVE/DEAD reactive dye (Invitrogen) and excluded from the analysis.
Monoclonal antibodies (anti-mouse): CD3, CD4, CD5, CD8, CD11b, CD19, CD21/35, CD23, CD25, CD43, CD44, CD49b, CD69, CD71, CD93, CD117, B220, GR-1, IgD, NK1.1, NKG2A/C/E, NKG2D, Ter119 were purchased from BD Biosciences; CD4, CD8, CD49b, CD62L, TCRβ, TCRγδ from eBioscience; GR-1 from Invitrogen; CD43 from Miltenyi Biotec. Goat anti-mouse IgM-FITC, (μ chain specific) from Jackson Immuno Research.
JAK2 and its family members JAK1 and JAK3 are known to signal downstream of cytokines that play essential roles in the development of lymphoid cell populations. To examine more thoroughly the effects of JAK2 inhibition on lymphoid cells, we analyzed wild-type (C57BL/6) mice treated with 54 mpk MRLB-11055 for 3 days, 6 days or up to 5 cycles of 3 days (“on”) followed by a 4 day holiday (“off”).
Supplementary file pone.0037207.s006.doc: Table S4 Effect of MRLB-11055 on Cell Populations in Bone Marrow of Normal Mice. Cell counts measured by Advia. Cycles refer to 3 days of treatment followed by a 4 day holiday. *p<0.05 in Student T test when comparing vehicle 5 cycle with treatment 5 cycle and vehicle 2 cycle with treatment 2 cycle, resp. (DOC) Click here for additional data file.

[6] = target: T2, JAK2 (JH1–JH2) V617F (Homo sapiens, UniProt O60674, V617F); experiment: JAK2 enzyme assay, HTRF detection; type: biochemical; settings: kinase activity, mean, n = 3, read-out: IC50, cell-free JAK2 (JH1–JH2) V617F
T2 construct: JAK2, 25 pM enzyme (JH1, JH1–JH2^wt, JH1–JH2^V617F domains)
T2 sequence (O60674 532-1132 V617F limits assumed): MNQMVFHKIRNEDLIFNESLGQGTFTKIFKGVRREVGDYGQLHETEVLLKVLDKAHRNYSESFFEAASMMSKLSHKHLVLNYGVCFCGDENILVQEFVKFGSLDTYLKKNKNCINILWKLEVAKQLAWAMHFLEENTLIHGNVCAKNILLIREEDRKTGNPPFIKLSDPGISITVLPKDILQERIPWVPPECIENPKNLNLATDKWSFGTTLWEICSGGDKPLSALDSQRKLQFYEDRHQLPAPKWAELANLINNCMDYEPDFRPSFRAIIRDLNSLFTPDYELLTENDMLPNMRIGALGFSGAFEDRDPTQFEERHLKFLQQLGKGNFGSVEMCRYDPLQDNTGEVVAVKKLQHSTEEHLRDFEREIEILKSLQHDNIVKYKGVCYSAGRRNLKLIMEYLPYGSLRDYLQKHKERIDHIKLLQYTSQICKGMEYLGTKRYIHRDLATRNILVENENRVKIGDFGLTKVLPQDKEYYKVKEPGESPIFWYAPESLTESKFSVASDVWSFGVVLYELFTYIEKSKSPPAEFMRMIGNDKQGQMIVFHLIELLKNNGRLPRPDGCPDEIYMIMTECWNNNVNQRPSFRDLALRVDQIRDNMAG
Experimental: as §1

[7] = target: T3, JAK2 (JH1) WT (Homo sapiens, UniProt O60674); experiment: JAK2 enzyme assay, HTRF detection; type: biochemical
T3 construct: JAK2, 25 pM enzyme (JH1, JH1–JH2^wt, JH1–JH2^V617F domains)
T3 sequence (O60674 849-1124 limits assumed): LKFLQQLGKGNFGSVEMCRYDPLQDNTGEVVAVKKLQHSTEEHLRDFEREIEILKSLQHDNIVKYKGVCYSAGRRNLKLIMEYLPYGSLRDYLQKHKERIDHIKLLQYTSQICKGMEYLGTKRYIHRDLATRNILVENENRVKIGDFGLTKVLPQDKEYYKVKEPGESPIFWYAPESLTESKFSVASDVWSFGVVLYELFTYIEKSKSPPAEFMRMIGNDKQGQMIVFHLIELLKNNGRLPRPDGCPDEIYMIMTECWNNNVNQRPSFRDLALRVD
Experimental: as §1

[8] = target: T4, JAK2 (JH1–JH2) WT (Homo sapiens, UniProt O60674); experiment: JAK2 enzyme assay, HTRF detection; type: biochemical; settings: kinase activity, mean, n = 3, read-out: IC50, cell-free JAK2 (JH1–JH2) WT
T4 construct: JAK2, 25 pM enzyme (JH1, JH1–JH2^wt, JH1–JH2^V617F domains)
T4 sequence (O60674 532-1132 limits assumed): as the sequence (O60674 532-1132 V617F limits assumed) above, with F86V counted along it
Experimental: as §1

[9] = 2 cycles (3 days treatment, 4 day holiday)
[10] = 5 cycles (3 days treatment, 4 day holiday)

T1 sequence (P52333 822-1111 limits assumed, species assumed): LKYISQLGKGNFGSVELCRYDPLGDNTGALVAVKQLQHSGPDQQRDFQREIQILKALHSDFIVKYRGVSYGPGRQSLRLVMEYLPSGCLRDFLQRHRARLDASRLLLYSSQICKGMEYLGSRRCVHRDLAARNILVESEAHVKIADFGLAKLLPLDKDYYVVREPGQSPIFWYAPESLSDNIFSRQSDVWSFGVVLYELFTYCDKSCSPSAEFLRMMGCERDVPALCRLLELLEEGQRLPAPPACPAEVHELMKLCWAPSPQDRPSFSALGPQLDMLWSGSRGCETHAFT

Question: For `NC(=O)c1cnc(N[C@H](C2CC2)C(F)(F)F)c2c1[nH]c1cc(-c3cnc(N)nc3)ccc12` [MRLB-11055], which IC50 ([1]; HTRF, mean, n = 3, read-out: IC50, cell-free JAK3 (JH1)) is on record?
Answer: 300 nM

Question: And the “Selectivity for JAK2 over JAK3” value ([1]; cell-free assays)?
Answer: > 3000 fold

Question: And the IC50 [2]?
Answer: 11 nM

Question: What about the IC50 [3] of the same compound?
Answer: 23 nM

Question: What about the “Times less potent on IL-2 stimulated CTLL-2 pSTAT5 than on JAK2V617F-mediated pSTAT5 in BaF3 cells” value [4] of the same compound?
Answer: 6 times

Question: What about the IC50 ([4]; Mus musculus, CTLL-2, 1 hour, IL2-stimulated, JAK1 and JAK3 dependent) of the same compound?
Answer: 66 nM

Question: What about the “B-Cells (CD19+B220+) Immature AA4.1+ IgM+” value [5, 9] of the same compound?
Answer: 0.70 ± 0.04* x 10^6

Question: And the “B-Cells (CD19+B220+) Mature AA4.1- IgM+” value [5, 9]?
Answer: 0.54 ± 0.12 x 10^6

Question: What about the “B-Cells (CD19+B220+) Pro/pre AA4.1+ IgM-” value [5, 9] of the same compound?
Answer: 2.78 ± 0.92 x 10^6

Question: And the “B-Cells (CD19+B220+) Total” value [5, 9]?
Answer: 4.05 ± 0.94* x 10^6

Question: And the “Erythroid Progenitors” value [5, 9]?
Answer: 8.3 ± 0.9 x 10^6

Question: What about the “Mature Erythrocytes” value [5, 9] of the same compound?
Answer: 13.5 ± 0.7 x 10^6

Question: What about the “Myeloid GR-1+ CD11b+” value [5, 9] of the same compound?
Answer: 8.33 ± 0.85* x 10^6

Question: What about the “Nucleated Cells” value [5, 9] of the same compound?
Answer: 25.0 ± 4.0 x 10^6

Question: And the “B-Cells (CD19+B220+) Immature AA4.1+ IgM+” value [5, 10]?
Answer: 0.15 ± 0.05* x 10^6

Question: What about the “B-Cells (CD19+B220+) Mature AA4.1- IgM+” value [5, 10] of the same compound?
Answer: 0.38 ± 0.17* x 10^6

Question: And the “B-Cells (CD19+B220+) Pro/pre AA4.1+ IgM-” value [5, 10]?
Answer: 1.22 ± 0.74 x 10^6

Question: And the “B-Cells (CD19+B220+) Total” value [5, 10]?
Answer: 1.76 ± 0.87* x 10^6

Question: And the “Erythroid Progenitors” value [5, 10]?
Answer: 5.9 ± 1.9 x 10^6

Question: And the “Mature Erythrocytes” value [5, 10]?
Answer: 10.3 ± 3.2 x 10^6

Question: And the “Myeloid GR-1+ CD11b+” value [5, 10]?
Answer: 7.83 ± 3.46 x 10^6

Question: What about the “Nucleated Cells” value [5, 10] of the same compound?
Answer: 19.6 ± 7.2 x 10^6

Question: And the “B-Cells (CD19+B220+) Immature AA4.1+ IgM+” value ([5]; 3 days)?
Answer: 0.22 ± 0.09* x 10^6

Question: And the “B-Cells (CD19+B220+) Mature AA4.1- IgM+” value ([5]; 3 days)?
Answer: 0.32 ± 0.17* x 10^6

Question: And the “B-Cells (CD19+B220+) Pro/pre AA4.1+ IgM-” value ([5]; 3 days)?
Answer: 0.24 ± 0.10* x 10^6

Question: And the “B-Cells (CD19+B220+) Total” value ([5]; 3 days)?
Answer: 0.78 ± 0.35* x 10^6

Question: What about the “Erythroid Progenitors” value ([5]; 3 days) of the same compound?
Answer: 0.5 ± 0.3* x 10^6

Question: And the “Mature Erythrocytes” value ([5]; 3 days)?
Answer: 25.0 ± 5.5* x 10^6

Question: What about the “Myeloid GR-1+ CD11b+” value ([5]; 3 days) of the same compound?
Answer: 2.07 ± 0.55* x 10^6

Question: And the “Nucleated Cells” value ([5]; 3 days)?
Answer: 4.7 ± 1.6* x 10^6

Question: What about the “B-Cells (CD19+B220+) Immature AA4.1+ IgM+” value ([5]; 6 days) of the same compound?
Answer: 0.11 ± 0.03* x 10^6

Question: And the “B-Cells (CD19+B220+) Mature AA4.1- IgM+” value ([5]; 6 days)?
Answer: 0.59 ± 0.52 x 10^6

Question: What about the “B-Cells (CD19+B220+) Pro/pre AA4.1+ IgM-” value ([5]; 6 days) of the same compound?
Answer: 0.08 ± 0.03* x 10^6

Question: And the “B-Cells (CD19+B220+) Total” value ([5]; 6 days)?
Answer: 0.79 ± 0.54* x 10^6

Question: What about the “Erythroid Progenitors” value ([5]; 6 days) of the same compound?
Answer: 1.4 ± 0.8* x 10^6

Question: What about the “Mature Erythrocytes” value ([5]; 6 days) of the same compound?
Answer: 18.7 ± 2.5* x 10^6

Question: And the “Myeloid GR-1+ CD11b+” value ([5]; 6 days)?
Answer: 1.90 ± 0.68* x 10^6

Question: And the “Nucleated Cells” value ([5]; 6 days)?
Answer: 5.4 ± 2.2* x 10^6

Question: What about the IC50 [6] of the same compound?
Answer: 0.35 nM

Question: What about the “Manner of inhibition of the JH1 kinase domain” value ([7]; data not shown) of the same compound?
Answer: ATP-competitive

Question: And the IC50 ([7]; kinase activity, HTRF assay, mean, n = 3, read-out: IC50, cell-free JAK2 (JH1) WT)?
Answer: 0.08 nM

Question: What about the IC50 [8] of the same compound?
Answer: 0.78 nM
